Converted amounts (≈) assume the structure as drawn. Read-outs that look alike come from different tables or passages of the source.
Legend:
Aspergillus niger = experiment: MIC, YAG medium, Aspergillus niger; format: cell-based; settings: YAG medium; for MIC: Aspergillus niger
Summary of the method: (§1)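 In YAG medium (1% glucose, 1% ammonium chloride, 0.5% yeast extract), Aspergillus strains at 1-2×10^4 cfu/ml were read after 24 hrs at 35° C, with MIC at >70% growth inhibition by OD485. C. albicans was run in MOPS-buffered RPMI, pH7.0, at 1-2×10^3 cfu/ml for 24-48 hrs, with MIC at >80% inhibition. The drug range was 50-0.05 mg/L.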

Aspergillus terreus = experiment: MIC, YAG medium, Aspergillus terreus; format: cell-based; settings: YAG medium; for MIC: Aspergillus terreus
Summary of the method: as §1

[1] = tested on: Aspergillus fumigatus AF210; experiment: MIC, YAG medium, Aspergillus fumigatus AF210; format: cell-based; settings: YAG medium; for MIC: Aspergillus fumigatus, AF210, read-out: MIC A Fum. 210
Summary of the method: as §1

Aspergillus flavus = experiment: MIC, YAG medium, Aspergillus flavus; format: cell-based; settings: YAG medium; for MIC: Aspergillus flavus
Summary of the method: as §1

[2] = tested on: Aspergillus fumigatus AF293; experiment: MIC, YAG medium, Aspergillus fumigatus AF293; format: cell-based; settings: YAG medium; for MIC: Aspergillus fumigatus, AF293, read-out: MIC A Fum. 293
Summary of the method: as §1

A Terreus 49 = experiment: MIC, YAG medium, A Terreus 49; format: cell-based, Aspergillus terreus; settings: YAG medium; for MIC: Aspergillus terreus, read-out: MIC A Terreus 49
Summary of the method: as §1

MIC (Aspergillus niger; read-out: MIC A Niger 1) | MIC (Aspergillus terreus; read-out: MIC A Terreus 4) | MIC [1] | MIC (Aspergillus flavus; read-out: MIC A Flavus 01) | MIC [2] | MIC (A Terreus 49) | MIC A Niger 1 (Aspergillus niger) | MIC A Terreus 4 (Aspergillus terreus) | MIC A Fum. 210 [1] | MIC A Flavus 01 (Aspergillus flavus) | MIC A Fum. 293 [2] | MIC A Terreus 49 (A Terreus 49) | MIC (Aspergillus niger; read-out: MIC A Niger) | MIC (Aspergillus terreus; read-out: MIC A Terreus) | MIC (Aspergillus flavus; read-out: MIC A Flavus) | SMILES
0.015 µg/mL (≈ 0.0352 µM) | 0.031 µg/mL (≈ 0.0727 µM) | 0.06 µg/mL (≈ 0.141 µM) | 0.031 µg/mL (≈ 0.0727 µM) | 0.061 µg/mL (≈ 0.143 µM) | 0.008 µg/mL (≈ 0.0188 µM) | – | – | – | – | – | – | – | – | – | CCCOC(=O)c1ccc(NC(=O)C(=O)c2c(-c3ccccc3)cc3ccccn23)cc1 [Example 143, 4-[2-Oxo-2-(2-phenyl-indolizin-3-yl)-acetylamino]-benzoic acid propyl ester]
0.05 µg/mL (≈ 0.115 µM) | 0.05 µg/mL (≈ 0.115 µM) | 0.2 µg/mL (≈ 0.461 µM) | 0.05 µg/mL (≈ 0.115 µM) | 0.1 µg/mL (≈ 0.231 µM) | 0.015 µg/mL (≈ 0.0346 µM) | – | – | – | – | – | – | – | – | – | O=C(Nc1ccc(Nc2ncccn2)cc1)C(=O)c1c(-c2ccccc2)cc2ccccn12 [Example 276, 2-Oxo-2-(2-phenyl-indolizin-3-yl)-N-[4-(pyrimidin-2-ylamino)-phenyl]-acetamide]
0.25 µg/mL (≈ 0.694 µM) | 0.06 µg/mL (≈ 0.166 µM) | 1.6 µg/mL (≈ 4.44 µM) | 0.062 µg/mL (≈ 0.172 µM) | 0.8 µg/mL (≈ 2.22 µM) | 0.062 µg/mL (≈ 0.172 µM) | – | – | – | – | – | – | – | – | – | Cc1ccc(NC(=O)C(=O)c2c(-c3cccs3)cc3ccccn23)cc1 [Example 165, 2-Oxo-2-(2-thiophen-2-yl-indolizin-3-yl)-N-p-tolyl-acetamide]
0.06 µg/mL (≈ 0.152 µM) | 0.004 µg/mL (≈ 0.0101 µM) | 0.03 µg/mL (≈ 0.0759 µM) | 0.004 µg/mL (≈ 0.0101 µM) | 0.03 µg/mL (≈ 0.0759 µM) | 0.001 µg/mL (≈ 0.00253 µM) | – | – | – | – | – | – | – | – | – | CN1CCc2cc(NC(=O)C(=O)c3c(-c4ccccc4)cc4ccccn34)ccc21 [Example 261, N-(1-Methyl-2,3-dihydro-1H-indol-5-yl)-2-oxo-2-(2-phenyl-indolizin-3-yl)-acetamide]
0.015 µg/mL (≈ 0.0366 µM) | 0.008 µg/mL (≈ 0.0195 µM) | 0.03 µg/mL (≈ 0.0733 µM) | 0.008 µg/mL (≈ 0.0195 µM) | 0.015 µg/mL (≈ 0.0366 µM) | 0.008 µg/mL (≈ 0.0195 µM) | – | – | – | – | – | – | – | – | – | O=C(Nc1ccc(N2CCCC2)cc1)C(=O)c1c(-c2ccccc2)cc2ccccn12 [Example 260, 2-Oxo-2-(2-phenyl-indolizin-3-yl)-N-(4-pyrrolidin-1-yl-phenyl)-acetamide]
0.015 µg/mL (≈ 0.0419 µM) | 0.015 µg/mL (≈ 0.0419 µM) | 0.25 µg/mL (≈ 0.698 µM) | 0.12 µg/mL (≈ 0.335 µM) | 0.5 µg/mL (≈ 1.4 µM) | 0.015 µg/mL (≈ 0.0419 µM) | – | – | – | – | – | – | – | – | – | O=C(Nc1ccccc1F)C(=O)c1c(-c2ccccc2)cc2ccccn12 [Example 201, N-(2-Fluoro-phenyl)-2-oxo-2-(2-phenyl-indolizin-3-yl)-acetamide]
0.12 µg/mL (≈ 0.302 µM) | 0.004 µg/mL (≈ 0.0101 µM) | 0.031 µg/mL (≈ 0.078 µM) | 0.004 µg/mL (≈ 0.0101 µM) | 0.062 µg/mL (≈ 0.156 µM) | 0.002 µg/mL (≈ 0.00503 µM) | – | – | – | – | – | – | – | – | – | Cc1cc(NC(=O)C(=O)c2c(-c3ccccc3)cc3ccccn23)ccc1N(C)C [Example 273, N-(4-Dimethylamino-3-methyl-phenyl)-2-oxo-2-(2-phenyl-indolizin-3-yl)-acetamide]
– | – | – | – | – | – | 1.6 µg/mL | 0.8 µg/mL | 12.5 µg/mL | 0.4 µg/mL | 12.5 µg/mL | 0.4 µg/mL | – | – | – | COc1ccc(NC(=O)C(=NOCCCC(=O)O)c2c(-c3ccccc3)cc3ccccn23)cc1 (mixture of isomers) [Example 297, 4-[1-(4-Methoxy-phenylcarbamoyl)-1-(2-phenyl-indolizin-3-yl)-meth-(E/Z)-ylideneaminooxy]-butyric acid]
0.008 µg/mL (≈ 0.0189 µM) | 0.015 µg/mL (≈ 0.0354 µM) | 0.4 µg/mL (≈ 0.945 µM) | 0.05 µg/mL (≈ 0.118 µM) | 0.1 µg/mL (≈ 0.236 µM) | 0.004 µg/mL (≈ 0.00945 µM) | – | – | – | – | – | – | – | – | – | O=C(Nc1ccc(-c2nccs2)cc1)C(=O)c1c(-c2ccccc2)cc2ccccn12 [Example 293, 2-Oxo-2-(2-phenyl-indolizin-3-yl)-N-(4-thiazol-2-yl-phenyl)-acetamide]
0.12 µg/mL (≈ 0.312 µM) | 0.12 µg/mL (≈ 0.312 µM) | 0.5 µg/mL (≈ 1.3 µM) | 0.031 µg/mL (≈ 0.0806 µM) | 0.5 µg/mL (≈ 1.3 µM) | 0.062 µg/mL (≈ 0.161 µM) | – | – | – | – | – | – | – | – | – | CN(C)c1ccc(NC(=O)C(=O)c2c(-c3ccccc3)cc3ccccn23)cn1 [Example 229, N-(6-Dimethylamino-pyridin-3-yl)-2-oxo-2-(2-phenyl-indolizin-3-yl)-acetamide]
0.031 µg/mL (≈ 0.0911 µM) | 0.031 µg/mL (≈ 0.0911 µM) | 0.12 µg/mL (≈ 0.353 µM) | 0.031 µg/mL (≈ 0.0911 µM) | 0.25 µg/mL (≈ 0.734 µM) | 0.004 µg/mL (≈ 0.0118 µM) | – | – | – | – | – | – | – | – | – | O=C(Nc1ccccc1)C(=O)c1c(-c2ccccc2)cc2ccccn12 [Example 136, 2-Oxo-N-phenyl-2-(2-phenyl-indolizin-3-yl)-acetamide]
0.1 µg/mL (≈ 0.242 µM) | 0.015 µg/mL (≈ 0.0364 µM) | 0.1 µg/mL (≈ 0.242 µM) | 0.008 µg/mL (≈ 0.0194 µM) | 0.1 µg/mL (≈ 0.242 µM) | 0.004 µg/mL (≈ 0.0097 µM) | – | – | – | – | – | – | – | – | – | COc1ccc(NC(=O)C(=O)c2c(-c3ccccc3)cc3ccccn23)cc1C(C)=O [Example 282, N-(3-Acetyl-4-methoxy-phenyl)-2-oxo-2-(2-phenyl-indolizin-3-yl)-acetamide]
0.05 µg/mL (≈ 0.123 µM) | 0.015 µg/mL (≈ 0.0368 µM) | 3.1 µg/mL (≈ 7.61 µM) | 0.03 µg/mL (≈ 0.0736 µM) | 0.8 µg/mL (≈ 1.96 µM) | 0.015 µg/mL (≈ 0.0368 µM) | – | – | – | – | – | – | – | – | – | O=C(Nc1ccc(-c2cnco2)cc1)C(=O)c1c(-c2ccccc2)cc2ccccn12 [Example 291, N-(4-Oxazol-5-yl-phenyl)-2-oxo-2-(2-phenyl-indolizin-3-yl)-acetamide]
0.06 µg/mL (≈ 0.156 µM) | 0.008 µg/mL (≈ 0.0208 µM) | 0.25 µg/mL (≈ 0.65 µM) | 0.004 µg/mL (≈ 0.0104 µM) | 0.25 µg/mL (≈ 0.65 µM) | 0.004 µg/mL (≈ 0.0104 µM) | – | – | – | – | – | – | – | – | – | COc1ccc(NC(=O)C(=O)c2c(-c3cccc(C)c3)cc3ccccn23)cc1 [Example 233, N-(4-Methoxy-phenyl)-2-oxo-2-(2-m-tolyl-indolizin-3-yl)-acetamide]
– | – | – | – | – | – | 25 µg/mL | 6.25 µg/mL | >50 µg/mL | 12.5 µg/mL | >50 µg/mL | 6.25 µg/mL | – | – | – | COc1ccc(NC(=O)C(=NOCCCN(C)C)c2c(-c3ccccc3)cc3ccccn23)cc1 (mixture of isomers) [Example 296, 2-[(E/Z)-3-Dimethylamino-propoxyimino]-N-(4-methoxy-phenyl)-2-(2-phenyl-indolizin-3-yl)-acetamide]
0.015 µg/mL (≈ 0.0368 µM) | 0.015 µg/mL (≈ 0.0368 µM) | 0.06 µg/mL (≈ 0.147 µM) | 0.03 µg/mL (≈ 0.0736 µM) | 0.1 µg/mL (≈ 0.245 µM) | 0.015 µg/mL (≈ 0.0368 µM) | – | – | – | – | – | – | – | – | – | O=C(Nc1ccc(-c2ncco2)cc1)C(=O)c1c(-c2ccccc2)cc2ccccn12 [Example 268, N-(4-Oxazol-2-yl-phenyl)-2-oxo-2-(2-phenyl-indolizin-3-yl)-acetamide]
0.4 µg/mL (≈ 0.934 µM) | 0.1 µg/mL (≈ 0.233 µM) | 0.8 µg/mL (≈ 1.87 µM) | 0.4 µg/mL (≈ 0.934 µM) | 1.6 µg/mL (≈ 3.73 µM) | 0.2 µg/mL (≈ 0.467 µM) | – | – | – | – | – | – | – | – | – | C=CCc1c(F)ccc(NC(=O)C(=O)c2c(-c3ccccc3)cc3ccccn23)c1OC [Example 254, N-(3-Allyl-4-fluoro-2-methoxy-phenyl)-2-oxo-2-(2-phenyl-indolizin-3-yl)-acetamide]
0.031 µg/mL (≈ 0.0832 µM) | 0.031 µg/mL (≈ 0.0832 µM) | 0.25 µg/mL (≈ 0.671 µM) | 0.015 µg/mL (≈ 0.0403 µM) | 0.25 µg/mL (≈ 0.671 µM) | 0.015 µg/mL (≈ 0.0403 µM) | – | – | – | – | – | – | – | – | – | Cc1ccc(NC(=O)C(=O)c2c(-c3ccc(F)cc3)cc3ccccn23)cc1 [Example 156, 2-[2-(4-Fluoro-phenyl)-indolizin-3-yl]-2-oxo-N-p-tolyl-acetamide]
– | – | 0.062 µg/mL (≈ 0.152 µM) | – | 0.12 µg/mL (≈ 0.294 µM) | 0.002 µg/mL (≈ 0.0049 µM) | – | – | – | – | – | – | 0.015 µg/mL (≈ 0.0367 µM) | 0.004 µg/mL (≈ 0.00979 µM) | 0.008 µg/mL (≈ 0.0196 µM) | O=C(Nc1cccc(C(F)(F)F)c1)C(=O)c1c(-c2ccccc2)cc2ccccn12 [Example 306, 2-Oxo-2-(2-phenyl-indolizin-3-yl)-N-(3-trifluoromethyl-phenyl)-acetamide]
0.031 µg/mL (≈ 0.0837 µM) | 0.008 µg/mL (≈ 0.0216 µM) | 0.12 µg/mL (≈ 0.324 µM) | 0.008 µg/mL (≈ 0.0216 µM) | 0.12 µg/mL (≈ 0.324 µM) | 0.002 µg/mL (≈ 0.0054 µM) | – | – | – | – | – | – | – | – | – | COc1ccc(NC(=O)C(=O)c2c(-c3ccccc3)cc3ccccn23)cc1 [Example 139, N-(4-Methoxy-phenyl)-2-oxo-2-(2-phenyl-indolizin-3-yl)-acetamide]

Source: patent US8486962B2, “Antifungal agents” (F2G Ltd., priority 2005, dated 2013)
